The results in this text go back to ChEMBL document CHEMBL1201862, “PubChem BioAssay data set” (2004).

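Exposure lasted 48 hours, with cells grown in 96-well plates and compounds tested at five concentrations. Here, GI50 denotes the concentration required for 50% inhibition of growth.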 Active and inactive are the calls of the source. Rule as the data show it: active = GI50 up to about 1.1 µM and inactive = higher.

Some test systems named below: A498; SK-MEL-28; HL-60; SNB-19; SK-MEL-5; OVCAR-5; NCI-H226; HT-29; EKVX; M14; HCC 2998; SN12C; NCI-H522; HOP-92; IGROV-1; CCRF-CEM; DMS-114; T47D; MDA-N; MDA-MB-435.
Common to all, as to test: inhibition of tumour cell growth, NCI panel, 48 h

As to `N#CC1(C#N)C2C=CC(c3coc4cccc2c34)C1(C#N)C#N` (stereo not given), the GI50 in the test with A498 was 20.4 µM (inactive); with SK-MEL-28, 3.66 µM (inactive); in the test on HL-60, 1.45 µM (inactive); in the test with SNB-19, 18.8 µM (inactive); with SK-MEL-5, 15.4 µM (inactive); in the test on OVCAR-5, 17 µM (inactive). Also, the GI50 with NCI-H226 was 19 µM (inactive); in the test on HT-29 it was 18.9 µM (inactive); in the test on EKVX, 15.5 µM (inactive); in the test with M14, 12.7 µM (inactive); with HCC 2998, 15.2 µM (inactive); in the test on SN12C, 11 µM (inactive). In addition, the GI50 with NCI-H522 is 1.66 µM (inactive); in the test on HOP-92, 18 µM (inactive); with IGROV-1, 18.7 µM (inactive); with CCRF-CEM, 1.11 µM (active); in the test with DMS-114, 5.11 µM (inactive).

Take `COc1cc(CC(=O)c2cc3c(cc2-c2ccccc2)OCO3)cc(OC)c1OC`: the GI50 in the test with A498 is 33.3 µM (inactive); with SK-MEL-28, 58.3 µM (inactive); in the test on HL-60, 11.1 µM (inactive); in the test with SNB-19, 72.3 µM (inactive); with SK-MEL-5, 6.62 µM (inactive); in the test on OVCAR-5, > 100 µM (inactive). The GI50 in the test with NCI-H226 was 14 µM (inactive); in the test on HT-29 it was > 100 µM (inactive); in the test on EKVX, 10.8 µM (inactive); in the test on M14 it was 45.9 µM (inactive); with HCC 2998, > 100 µM (inactive); in the test on SN12C, 68.7 µM (inactive). Further, the GI50 in the test with NCI-H522 was 18.7 µM (inactive); with HOP-92 it was < 0.01 µM (active); in the test on IGROV-1 it was 23.1 µM (inactive); in the test with CCRF-CEM it was 13 µM (inactive); with DMS-114, 16.6 µM (inactive).

Take `C/C=C1\Oc2ccc(OC)cc2S1(=O)=O`: the GI50 with A498, in the test with SK-MEL-28, in the test on HL-60, in the test on SNB-19, in the test with SK-MEL-5 and in the test with OVCAR-5 was > 100 µM (inactive) each time. Moreover, the GI50 in the test with NCI-H226, with HT-29, with EKVX, with M14, with HCC 2998 and in the test on SN12C was > 100 µM (inactive) throughout. Further, the GI50 with NCI-H522, in the test on HOP-92, in the test on IGROV-1, with CCRF-CEM and with DMS-114 was > 100 µM (inactive) in each case.

As for `CCOC(=O)c1cc2c3c(c(O)c(OC)c2s1)N(C(=O)c1cc2c4c(c(O)c(OC)c2s1)N(C(C)=O)CC4)CC3`, the GI50 was 31.2 µM (inactive) in the test on A498; > 100 µM (inactive) with SK-MEL-28; 28.2 µM (inactive) in the test on HL-60; > 100 µM (inactive) in the test on SNB-19; 85.1 µM (inactive) in the test on SK-MEL-5; > 100 µM (inactive) in the test on OVCAR-5. Moreover, the GI50 in the test with NCI-H226 is 50.4 µM (inactive); in the test on HT-29, > 100 µM (inactive); in the test on EKVX it was > 100 µM (inactive); with M14, 46.5 µM (inactive); with HCC 2998, > 100 µM (inactive); with SN12C, > 100 µM (inactive). The GI50 with NCI-H522 is > 100 µM (inactive); in the test with HOP-92, 29 µM (inactive); in the test with IGROV-1, > 100 µM (inactive); in the test on CCRF-CEM, > 100 µM (inactive); in the test on DMS-114, > 100 µM (inactive).

With `CC(C)CC1CC2C(=O)N(c3ccccc3)C(=O)C2c2[nH]c3ccccc3c21` (stereo not given), the GI50 was > 36.3 µM (inactive) in the test with A498; 27 µM (inactive) in the test with SK-MEL-28; 15.3 µM (inactive) in the test with HL-60; 40.9 µM (inactive) in the test on SNB-19; > 80.9 µM (inactive) in the test with SK-MEL-5; > 100 µM (inactive) with OVCAR-5. Besides, the GI50 in the test with NCI-H226 was 24.5 µM (inactive); in the test on HT-29 it was 51.9 µM (inactive); in the test with EKVX, > 52.2 µM (inactive); with M14, 28.2 µM (inactive); with HCC 2998, 17.4 µM (inactive); with SN12C, 13.9 µM (inactive). For the same molecule, the GI50 was 20.9 µM (inactive) with NCI-H522; 18.6 µM (inactive) in the test on HOP-92; 17.7 µM (inactive) in the test on IGROV-1; 16 µM (inactive) with CCRF-CEM; 15.9 µM (inactive) in the test with DMS-114.

Consider `CC1(C)C(=O)C(O)=CC2C1=CCC1C2(C)C(=O)CC2(C)C(C(C)(O)C(=O)CC(O)C(C)(C)O)C(O)CC12C` (stereo not given), for which the GI50 is 2 µM (inactive) in the test on A498; 2.69 µM (inactive) in the test on SK-MEL-28; 3.17 µM (inactive) with HL-60; 3.13 µM (inactive) with SNB-19; 2.84 µM (inactive) in the test on SK-MEL-5; 25.2 µM (inactive) in the test on OVCAR-5. Further, the GI50 in the test with NCI-H226 is 2.86 µM (inactive); with HT-29 it was 3.35 µM (inactive); in the test on EKVX it was 10 µM (inactive); with M14, 3.54 µM (inactive); in the test with HCC 2998, 3.35 µM (inactive); in the test with SN12C, 4.98 µM (inactive). In addition, the GI50 in the test on NCI-H522 is 2.71 µM (inactive); with HOP-92, 2.38 µM (inactive); in the test on IGROV-1, 2.64 µM (inactive); with CCRF-CEM, 3.01 µM (inactive); with DMS-114, 6.67 µM (inactive).

As for `O=C1C2=C(c3ccccc31)C(c1ccccc1Cl)N1C(=O)CCSC1=N2` (stereo not given), the GI50 in the test on A498, in the test on SK-MEL-28, in the test on HL-60, with SNB-19, in the test with SK-MEL-5 and with OVCAR-5 was > 100 µM (inactive) throughout. The GI50 in the test with NCI-H226 is > 100 µM (inactive); with HT-29, > 100 µM (inactive); with EKVX, > 100 µM (inactive); in the test with M14, > 100 µM (inactive); in the test on HCC 2998 it was > 100 µM (inactive); with SN12C, 89.9 µM (inactive). In addition, the GI50 is 35.7 µM (inactive) in the test on NCI-H522; 30.1 µM (inactive) in the test on HOP-92; > 100 µM (inactive) in the test with IGROV-1; > 100 µM (inactive) in the test on CCRF-CEM; > 100 µM (inactive) in the test with DMS-114.

For `C=C(CN(CC(=C)C(=O)c1ccccc1)C(C)(C)C)C(=O)c1ccccc1`, the GI50 was 18.3 µM (inactive) with A498; 16.5 µM (inactive) in the test with SK-MEL-28; 2.53 µM (inactive) with HL-60; 23.3 µM (inactive) with SNB-19; 16.8 µM (inactive) in the test with SK-MEL-5; 19.6 µM (inactive) in the test on OVCAR-5. The GI50 is 24 µM (inactive) in the test with NCI-H226; 18.1 µM (inactive) with HT-29; 18.9 µM (inactive) in the test on EKVX; 10.5 µM (inactive) in the test with M14; 19 µM (inactive) in the test on HCC 2998; 16.3 µM (inactive) in the test with SN12C. Moreover, the GI50 is 2.86 µM (inactive) in the test on NCI-H522; 5.62 µM (inactive) with HOP-92; 20.5 µM (inactive) with IGROV-1; 1.5 µM (inactive) with CCRF-CEM; 16.9 µM (inactive) with DMS-114.

For the molecule `C=CCSc1ncnc2c1ncn2C1OC(CO)C(O)C1O` (stereo not given), the GI50 was 58.2 µM (inactive) with A498; > 100 µM (inactive) in the test on SK-MEL-28; 36 µM (inactive) in the test with HL-60; > 100 µM (inactive) in the test on SNB-19; > 100 µM (inactive) in the test on SK-MEL-5; 60.5 µM (inactive) with OVCAR-5. For the same molecule, the GI50 in the test on NCI-H226 is > 100 µM (inactive); in the test with HT-29, 32.6 µM (inactive); in the test with EKVX, > 100 µM (inactive); with M14 it was 33 µM (inactive); with HCC 2998, 24.3 µM (inactive); with SN12C, 6.31 µM (inactive). The GI50 is 11.9 µM (inactive) with NCI-H522; 9.2 µM (inactive) in the test with HOP-92; > 100 µM (inactive) in the test with IGROV-1; > 100 µM (inactive) with CCRF-CEM; 11.4 µM (inactive) in the test with DMS-114.

`Cc1c(C(=O)/C=C/C=C/c2ccccc2)[n+]([O-])c2ccccc2[n+]1[O-]`: the GI50 was 51.8 µM (inactive) in the test on A498; 18.9 µM (inactive) in the test with SK-MEL-28; 26.1 µM (inactive) in the test on HL-60; 35.5 µM (inactive) with SNB-19; 19.9 µM (inactive) with SK-MEL-5; 66.1 µM (inactive) with OVCAR-5. In addition, the GI50 was 64.3 µM (inactive) with NCI-H226; > 10 µM (inactive) in the test on HT-29; 51.2 µM (inactive) in the test with EKVX; 19.8 µM (inactive) in the test on M14; 18.9 µM (inactive) in the test with HCC 2998; 23.5 µM (inactive) in the test with SN12C. Further, the GI50 in the test on NCI-H522 was 15 µM (inactive); in the test with HOP-92, 18 µM (inactive); with IGROV-1, 26.3 µM (inactive); in the test on CCRF-CEM, 34 µM (inactive); in the test on DMS-114 it was 25.6 µM (inactive).

Regarding `COc1cccc2c1C(=O)c1c(O)c3c(c(O)c1C2=O)C[C@@](O)(C(C)=O)C[C@@H]3OC1OC(C)C(O)C(N)C1Br` (stereo not given in full), the GI50 in the test on T47D was 0.0585 µM (active); in the test with A498 it was 0.133 µM (active); in the test on SK-MEL-28, 0.318 µM (active); in the test on HL-60, 0.00971 µM (active); with SNB-19, 0.0412 µM (active); in the test on SK-MEL-5, 0.0689 µM (active). Besides, the GI50 in the test on OVCAR-5 is 0.28 µM (active); in the test with NCI-H226, 0.0165 µM (active); in the test with HT-29 it was 0.152 µM (active); in the test on EKVX, 0.805 µM (active); in the test with MDA-N, 0.208 µM (active); in the test with M14 it was 0.0681 µM (active). In addition, the GI50 is 0.22 µM (active) with MDA-MB-435; 0.111 µM (active) in the test with HCC 2998; 0.0281 µM (active) in the test with SN12C; 0.0652 µM (active) with NCI-H522; 0.0486 µM (active) in the test on HOP-92; 0.266 µM (active) with IGROV-1. For the same molecule, the GI50 in the test on CCRF-CEM was 0.00414 µM (active); in the test on DMS-114, 0.0316 µM (active).
